The record followed here is patent publication US10676471B2, “Cycloalkyl-linked diheterocycle derivatives” (Pfizer Inc., priority 2014, dated 2020).

This test has as its system BT20 Cell. Description: Cancer Cell Lysate Total L-Glutamate Assay. It counts as cell-based. To be noted: Homo sapiens, BT-20, 2 h, total L-glutamate in cell lysate, BT20 cells, 2 hour incubation with test compound. An outline of the steps: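 BT20 and other cancer lines at ~80% confluence were given fresh L-glutamine-containing medium, then treated with serially diluted compound (0.5% DMSO) for 2 hours at 37° C. Washed cells were lysed by freeze-thaw and sonication. Lysate glutamate was measured via glutamate oxidase/HRP/50 μM Amplex Red fluorescence (ex 530-560, em 585 nm); IC50 by four-parameter logistic fit.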

What is called IC50 is the concentration at which inhibition is half-maximal. Low values mean inhibition by little substance, high ones a need for much substance. `CC(=O)Nc1nnc(C[C@H]2CC[C@@H](c3nnc(NC(=O)Cc4ccccn4)s3)C2)s1` (single isomer, unassigned) [Example 56, N-{5-[(cis)-3-{[5-(acetylamino)-1,3,4-thiadiazol-2-yl]methyl}cyclopentyl]-1,3,4-thiadiazol-2-yl}-2-(pyridin-2-yl)acetamide]: inhibition was half-maximal at 2700 nM (IC50).

In turn, `Nc1nnc(CC2CC[C@H](c3nnc(NC(=O)Cc4ccccc4)s3)C2)s1` (single isomer, unassigned) [Example 64, N-(5-{(cis)-3-[(5-amino-1,3,4-thiadiazol-2-yl)methyl]cyclopentyl}-1,3,4-thiadiazol-2-yl)-2-phenylacetamide] displayed a concentration for half-maximal inhibition (IC50) of 71.2 nM. Then `O=C(Cc1ccccn1)Nc1nnc(C[C@H]2CC[C@@H](c3nnc(NC(=O)Cc4ccccn4)s3)C2)s1` (single isomer, unassigned) [Example 4], with 21.6 nM; and `C[C@@H](c1nnc(NC(=O)Cc2ccccn2)s1)[C@H]1C[C@@H](c2nnc(NC(=O)Cc3ccccn3)s2)C1` (single isomer, unassigned) [Example 103], with 0.8 nM; and `CCNc1nnc(C2CCC(Cc3nnc(NC(C)=O)s3)C2)s1` (racemic) [Example 66, (rac)-N-[5-({(cis)-3-[5-(ethylamino)-1,3,4-thiadiazol-2-yl]cyclopentyl}methyl)-1,3,4-thiadiazol-2-yl]acetamide], with 1290 nM. Take `O=C(Cc1ccccn1)Nc1nnc(C[C@H]2CC[C@@H](c3nnc(NC(=O)Cc4ccccn4)s3)C2)s1` (racemic) [Example 152, (rac)-2-(pyridin-2-yl)-N-(5-{[(cis)-3-{5-[(pyridin-2-ylacetyl)amino]-1,3,4-thiadiazol-2-yl}cyclopentyl]methyl}-1,3,4-thiadiazol-2-yl)acetamide]: the IC50 worked out at 2.8 nM. Under `O=C(Cc1ccccn1)Nc1nnc(C[C@@H]2CC[C@H](c3nnc(Nc4ccccn4)s3)C2)s1` (single isomer, unassigned) [Example 133, 2-(pyridin-2-yl)-N-[5-({(cis)-3-[5-(pyridin-2-ylamino)-1,3,4-thiadiazol-2-yl]cyclopentyl}methyl)-1,3,4-thiadiazol-2-yl]acetamide] stands 1.7 nM; under `O=C(CCn1cccn1)Nc1nnc(C[C@H]2CC[C@@H](c3nnc(NC(=O)Cc4ccccn4)s3)C2)s1` (racemic) [Example 143, (rac)-3-(1H-pyrazol-1-yl)-N-(5-{[(cis)-3-{5-[(pyridin-2-ylacetyl)amino]-1,3,4-thiadiazol-2-yl}cyclopentyl]methyl}-1,3,4-thiadiazol-2-yl)propanamide], 4.2 nM.

Turning to `CC(=O)Nc1nnc(C[C@H]2C[C@H](c3nnc(NC(C)=O)s3)C2)s1` (single isomer, unassigned) [Example 63, N-[5-({trans-3-[5-(acetylamino)-1,3,4-thiadiazol-2-yl]cyclobutyl}methyl)-1,3,4-thiadiazol-2-yl]acetamide], the half-maximal inhibitory concentration (IC50) is 110 nM. The compound `CC(=O)Nc1nnc(C2CCC(Cc3nnc(NC(=O)Cc4cncnc4)s3)C2)s1` (racemic) [Example 49, (rac)-N-[(cis)-5-({3-[5-(acetylamino)-1,3,4-thiadiazol-2-yl]cyclopentyl}methyl)-1,3,4-thiadiazol-2-yl]-2-(pyrimidin-5-yl)acetamide] came in with an IC50 of 789 nM. This IC50 is about 7.2-fold higher than that of the compound before.

As to `CCC(=O)Nc1nnc(C2CC3(C2)CC(c2nnc(NC(=O)CC)s2)C3)s1` (centres unmarked) [Example 134, N,N′-(spiro[3.3]heptane-2,6-diyldi-1,3,4-thiadiazole-5,2-diyl)dipropanamide], 1.3 nM corresponded to half-maximal inhibition (IC50).

In the case of `O=C(Cc1ccccn1)Nc1nnc(C[C@@H]2CC[C@H](c3nnc(Nc4ncccn4)s3)C2)s1` (single isomer, unassigned) [Example 84, 2-(pyridin-2-yl)-N-[5-({(cis)-3-[5-(pyrimidin-2-ylamino)-1,3,4-thiadiazol-2-yl]cyclopentyl}methyl)-1,3,4-thiadiazol-2-yl]acetamide], the half-maximal inhibitory concentration (IC50) stood at 0.5 nM.

The compound `C[C@H](C(=O)Nc1nnc(C[C@H]2CC[C@@H](c3nnc(NC(=O)[C@@H](C)c4cccnc4)s3)C2)s1)c1cccnc1` (single isomer, unassigned) [Example 32, 2-(pyridin-3-yl)-N-(5-{[(cis)-3-(5-{[2-(pyridin-3-yl)propanoyl]amino}-1,3,4-thiadiazol-2-yl)cyclopentyl]methyl}-1,3,4-thiadiazol-2-yl)propanamide] displayed an IC50 of 201 nM. With `O=C(Cc1ccccn1)Nc1ccc([C@H]2C[C@@H](Cc3nnc(NC(=O)Cc4ccccn4)s3)C2)nn1` (single isomer, unassigned) [Example 124, 2-(pyridin-2-yl)-N-{5-[(cis-3-{6-[(pyridin-2-ylacetyl)amino]pyridazin-3-yl}cyclobutyl)methyl]-1,3,4-thiadiazol-2-yl}acetamide], the half-inhibitory concentration (IC50) was 4.7 nM.

Turning to `O=C(Cc1ccccn1)Nc1nnc(CC2CCC(c3nnc(NC(=O)Cc4ccccn4)s3)C2)s1` (racemic) [Example 3, (rac)-2-(pyridin-2-yl)-N-(5-{[(cis)-3-{5-[(pyridin-2-ylacetyl)amino]-1,3,4-thiadiazol-2-yl}cyclopentyl]methyl}-1,3,4-thiadiazol-2-yl)acetamide], half-maximal inhibition (IC50) required 6.4 nM.

Turning to `C[C@@H](C(=O)Nc1nnc(C[C@H]2CC[C@@H](c3nnc(NC(=O)[C@H](C)c4cccnc4)s3)C2)s1)c1cccnc1` (single isomer, unassigned) [Example 36, 2-(pyridin-3-yl)-N-(5-{[(cis)-3-(5-{[2-(pyridin-3-yl)propanoyl]amino}-1,3,4-thiadiazol-2-yl)cyclopentyl]methyl}-1,3,4-thiadiazol-2-yl)propanamide], half-maximal inhibition (IC50) required 284 nM. For `CC(=O)Nc1nnc(CC2CCC(c3nnc(NC(=O)Cc4ccccc4)s3)C2)s1` (racemic) [Example 43, (rac)-N-{5-[(cis)-3-{[5-(acetylamino)-1,3,4-thiadiazol-2-yl]methyl}cyclopentyl]-1,3,4-thiadiazol-2-yl}-2-phenylacetamide], the IC50 was 94.4 nM. In turn, `CC(=O)Nc1nnc(C[C@H]2CC[C@@H](c3nnc(NC(C)=O)s3)C2)s1` (single isomer, unassigned) [Example 7] gave an IC50 of 3360 nM. `CC(C)C(=O)Nc1nnc(C2CC3(C2)CC(c2nnc(NC(=O)C(C)C)s2)C3)s1` (racemic) [Example 94, (rac)-N,N′-(spiro[3.3]heptane-2,6-diyldi-1,3,4-thiadiazole-5,2-diyl)bis(2-methylpropanamide)]: 8.5 nM corresponded to half-maximal inhibition (IC50).

For `CC(C)C(=O)Nc1ccc(C[C@H]2CC[C@@H](c3nnc(NC(=O)Cc4ccccn4)s3)C2)nn1` (single isomer, unassigned) [Example 78, 2-methyl-N-(6-{[(cis)-3-{5-[(pyridin-2-ylacetyl)amino]-1,3,4-thiadiazol-2-yl}cyclopentyl]methyl}pyridazin-3-yl)propanamide], the half-maximal inhibitory concentration (IC50) amounted to 3 nM. In turn, `O=C(Cc1ccccc1)Nc1ccc(CC2CCC(c3nnc(NC(=O)Cc4ccccn4)s3)C2)nn1` (racemic) [Example 1, 2-phenyl-N-(6-{[(cis)-3-{5-[(pyridine-2-ylacetyl)amino]-1,3,4-thiadiazol-2-yl}cyclopentyl]methyl}pyridazin-3-yl)acetamide] returned an IC50 of 0.7 nM. Regarding `CC(=O)Nc1nnc([C@@H]2CC[C@H](Cc3nnc(NC(=O)Cc4ccn(C)n4)s3)C2)s1` (racemic) [Example 146, (rac)-N-[5-({(cis)-3-[5-(acetylamino)-1,3,4-thiadiazol-2-yl]cyclopentyl}methyl)-1,3,4-thiadiazol-2-yl]-2-(1-methyl-1H-pyrazol-3-yl)acetamide], the IC50 came out at 6.9 nM. Take `CC(=O)Nc1nnc(C[C@H]2CCC(c3nnc(NC(=O)Cc4ccncn4)s3)C2)s1` (single isomer, unassigned) [Example 21, N-{5-[(cis)-3-{[5-(acetylamino)-1,3,4-thiadiazol-2-yl]methyl}cyclopentyl]-1,3,4-thiadiazol-2-yl}-2-(pyrimidin-4-yl)acetamide]: the 50% inhibitory concentration (IC50) is above 6650 nM.

In the case of `CC(=O)Nc1nnc([C@@H]2CC[C@H](Cc3nnc(NC(=O)Cc4cscn4)s3)C2)s1` (racemic) [Example 145, (rac)-N-[5-({(cis)-3-[5-(acetylamino)-1,3,4-thiadiazol-2-yl]cyclopentyl}methyl)-1,3,4-thiadiazol-2-yl]-2-(1,3-thiazol-4-yl)acetamide], the concentration for half-maximal inhibition (IC50) is 7.1 nM. In other words, the single-digit nanomolar range.

The compound `O=C(Cc1ccccn1)Nc1ccc(C[C@@H]2CC[C@H](c3nnc(NC(=O)C[C@H]4CCCO4)s3)C2)nn1` (single isomer, unassigned) [Example 130] displayed an IC50 of 1.8 nM. Against the preceding compound, the IC50 is about 3.9-fold lower.

As to `COCCC(=O)Nc1nnc([C@H]2CC[C@@H](Cc3ccc(NC(=O)Cc4ccccn4)nn3)C2)s1` (single isomer, unassigned) [Example 122, 3-methoxy-N-{5-[(cis)-3-({6-[(pyridin-2-ylacetyl)amino]pyridazin-3-yl}methyl)cyclopentyl]-1,3,4-thiadiazol-2-yl}propanamide], the half-inhibitory concentration (IC50) was 0.4 nM. As to `CC(=O)Nc1nnc(C2CCC(C)(c3nnc(NC(C)=O)s3)C2(C)C)s1` (racemic) [Example 60, N,N′-{[-1,2,2-trimethylcyclopentane-1,3-diyl]di-1,3,4-thiadiazole-5,2-diyl}diacetamide], the half-maximal inhibitory concentration (IC50) stood at 274 nM. `Cc1ccc(CC(=O)Nc2nnc(C[C@H]3C[C@@H](c4nnc(NC(=O)Cc5ccc(C)cn5)s4)C3)s2)nc1` (single isomer, unassigned) [Example 108, 2-(5-methylpyridin-2-yl)-N-(5-{[cis-3-(5-{[(5-methylpyridin-2-yl)acetyl]amino}-1,3,4-thiadiazol-2-yl)cyclobutyl]methyl}-1,3,4-thiadiazol-2-yl)acetamide]: the 50% inhibitory concentration (IC50) came to 0.3 nM. With `CC(=O)Nc1nnc([C@H]2CC[C@@H](Cc3nnc(NC(=O)Cc4ccccc4)s3)C2)s1` (single isomer, unassigned) [Example 14], the IC50 came to 3.1 nM. Against the preceding compound, the IC50 is about 10-fold higher.
